Results from PubChem BioAssay AID328 (DTP/NCI, 2004).
Where “and” joins values, the source holds several entries; their conditions need not be identical. Equal entries are not always repeated. Inconclusive results and toxic doses are left out. Residues, ends and D or L forms follow the SMILES beside them. *: point of attachment. Bn = c1ccc(C*)cc1

Tested on: BDF1 mice, P388 leukemia ip, median survival T/C
Test: NCI In Vivo Anticancer Drug Screen. Data for tumor model P388 Leukemia (intraperitoneal) in B6D2F1 (BDF1) mice
Details: endpoint: median survival time, higher = longer survival
Procedure, shortened: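 Read-out is survival of treated animals expressed relative to the vehicle group, as a T/C ratio.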

[1] = dose: 12.5 mg/kg/injection, schedule: Q04DX003 (ip), vehicle: saline with Tween-80
[2] = dose: 25.0 mg/kg/injection, schedule: Q04DX003 (ip), vehicle: saline with Tween-80
[3] = dose: 100.0 mg/kg/injection, schedule: Q04DX003 (ip), vehicle: saline with Tween-80
[4] = dose: 25.0 mg/kg/injection, schedule: Q01DX009 (ip), vehicle: saline with Tween-80
[5] = dose: 50.0 mg/kg/injection, schedule: Q01DX009 (ip), vehicle: saline with Tween-80
[6] = dose: 50.0 mg/kg/injection, schedule: Q04DX003 (ip), vehicle: saline with Tween-80
[7] = dose: 100.0 mg/kg/injection, schedule: Q01DX009 (ip), vehicle: saline with Tween-80
[8] = dose: 200.0 mg/kg/injection, schedule: Q01DX009 (ip), vehicle: saline with Tween-80
[9] = dose: 200.0 mg/kg/injection, schedule: Q04DX003 (ip), vehicle: saline with Tween-80
[10] = dose: 400.0 mg/kg/injection, schedule: Q04DX003 (ip), vehicle: saline with Tween-80

COc1ccccc1/C=C/c1ccnc2ccccc12
T/C (dose: 100.0 mg/kg/injection, schedule: Q01DX009 (ip), vehicle: Klucel (hydroxypropylcellulose) (HPC)): 95 % of control | T/C (dose: 100.0 mg/kg/injection, schedule: Q04DX003 (ip), vehicle: Klucel (hydroxypropylcellulose) (HPC)): 110 % of control | T/C (dose: 200.0 mg/kg/injection, schedule: Q01DX009 (ip), vehicle: Klucel (hydroxypropylcellulose) (HPC)): 113 % of control | T/C (dose: 200.0 mg/kg/injection, schedule: Q04DX003 (ip), vehicle: Klucel (hydroxypropylcellulose) (HPC)): 115 % of control | T/C (dose: 400.0 mg/kg/injection, schedule: Q01DX009 (ip), vehicle: Klucel (hydroxypropylcellulose) (HPC)): 122 % of control | T/C (dose: 400.0 mg/kg/injection, schedule: Q04DX003 (ip), vehicle: Klucel (hydroxypropylcellulose) (HPC)): 105 % of control

CN1CCC2=C(C1)C(N1CCCC1)CS(=O)(=O)O2 (stereo not drawn)
T/C (dose: 12.5 mg/kg/injection, schedule: Q04DX002 (ip), vehicle: saline): 100 % of control | T/C (dose: 25.0 mg/kg/injection, schedule: Q04DX002 (ip), vehicle: saline): 102 % of control | T/C (dose: 50.0 mg/kg/injection, schedule: Q04DX002 (ip), vehicle: saline): 99 % of control

O=C(O)c1c(Cl)c(Cl)c(Cl)c(Cl)c1C(=O)O.O=C(O)c1c(Cl)c(Cl)c(Cl)c(Cl)c1C(=O)O.[Pt]
T/C (dose: 25.0 mg/kg/injection, schedule: Q04DX003 (ip), vehicle: saline sonified): 115 % of control | T/C (dose: 50.0 mg/kg/injection, schedule: Q04DX003 (ip), vehicle: saline sonified): 120 % of control

COc1cc(C=O)c(C=O)cc1OC
T/C (dose: 6.25 mg/kg/injection, schedule: Q04DX003 (ip), vehicle: saline with Tween-80): 110 % of control | T/C [1]: 106 % of control | T/C [2]: 106 % of control | T/C [3]: 97 % of control

CO[C@H]1OC(=O)C=C2C1=C[C@H]1OC(=O)[C@@]3(C)CCC[C@@]2(C)[C@@H]13
T/C (dose: 12.5 mg/kg/injection, schedule: Q01DX009 (ip), vehicle: Klucel (hydroxypropylcellulose) (HPC)): 100 % of control | T/C (dose: 25.0 mg/kg/injection, schedule: Q01DX009 (ip), vehicle: Klucel (hydroxypropylcellulose) (HPC)): 100 % of control

Clc1nc2nc[nH]c2nc1Cl
T/C [1]: 100 % of control | T/C [4]: 170 % of control | T/C [2]: 100 % of control | T/C [5]: 95 % of control | T/C [6]: 90 % of control | T/C [3]: 95 % of control

C(=N\N=C\c1c[nH]c2ccccc12)/c1c[nH]c2ccccc12
T/C (dose: 100.0 mg/kg/injection, schedule: Q01DX009 (ip), vehicle: gum acacia): 89 % of control | T/C (dose: 100.0 mg/kg/injection, schedule: Q04DX003 (ip), vehicle: gum acacia): 108 % of control | T/C (dose: 200.0 mg/kg/injection, schedule: Q01DX009 (ip), vehicle: gum acacia): 89 % of control | T/C (dose: 200.0 mg/kg/injection, schedule: Q04DX003 (ip), vehicle: gum acacia): 95 % of control | T/C (dose: 400.0 mg/kg/injection, schedule: Q01DX009 (ip), vehicle: gum acacia): 96 % of control | T/C (dose: 400.0 mg/kg/injection, schedule: Q04DX003 (ip), vehicle: gum acacia): 100 % of control

CC12CCCN(CCCl)C1CCC1C2CCC2(C)C1CCCN2CCCl (stereo not drawn)
T/C (dose: 0.38 mg/kg/injection, schedule: Q01DX001 (ip), vehicle: saline): 98 % of control | T/C (dose: 0.75 mg/kg/injection, schedule: Q01DX001 (ip), vehicle: saline): 102 % of control | T/C (dose: 0.78 mg/kg/injection, schedule: Q01DX001 (ip), vehicle: saline): 102 % of control | T/C (dose: 1.5 mg/kg/injection, schedule: Q01DX001 (ip), vehicle: saline): 109 % of control | T/C (dose: 1.56 mg/kg/injection, schedule: Q01DX001 (ip), vehicle: saline): 100 % of control | T/C (dose: 3.13 mg/kg/injection, schedule: Q01DX001 (ip), vehicle: saline): 107 % of control | T/C (dose: 6.25 mg/kg/injection, schedule: Q01DX001 (ip), vehicle: saline): 116 % of control

C/C=C1\CN(C(=O)C(NC(=O)C(N)C(O)C(O)COC(N)=O)C2OC(n3cc(C(=O)O)c(=O)[nH]c3=O)C(O)C2O)C1C(=O)O (stereo not drawn) (tested in a mixture with another compound)
T/C (dose: 100.0 mg/kg/injection, schedule: Q01DX008 (ip), vehicle: saline): 90 % of control | T/C (dose: 200.0 mg/kg/injection, schedule: Q01DX008 (ip), vehicle: saline): 100 % of control

CCCCN(CCCC)CC(O)c1c2cccc(Cl)c2cc2c(Cl)cccc12 (stereo not drawn)
T/C [5]: 107 % of control | T/C [7]: 102 % of control | T/C [8]: 123 % of control

OCc1ccccc1Sc1ccccc1CO
T/C [5]: 91 % of control | T/C [7]: 100 % of control | T/C [8]: 99 % of control

c1csc(-c2nc3ccccc3s2)c1
T/C [3]: 109 % of control | T/C [9]: 100 % of control | T/C [10]: 100 % of control

COC(=O)C(CC(C)C)NC(=O)C(N)Cc1ccc(OCc2ccccc2)cc1 (stereo not drawn) (H-Tyr(Bn)-Leu-OMe; configuration not given here)
T/C (dose: 12.5 mg/kg/injection, schedule: Q01DX009 (ip), vehicle: saline with Tween-80): 105 % of control | T/C [4]: 100 % of control | T/C [5]: 105 % of control and 120 % of control | T/C [6]: 105 % of control | T/C [7]: 105 % of control | T/C [3]: 100 % of control

Clc1ccc2c(c1)nnn2OC1CCCCCC1
T/C [5]: 101 % of control | T/C [7]: 97 % of control | T/C [8]: 108 % of control

NC(Cn1cc(N(CCCl)CCCl)c(=O)[nH]c1=O)C(=O)O (stereo not drawn)
T/C (dose: 6.0 mg/kg/injection, schedule: Q01DX009 (ip), vehicle: saline): 175 % of control | T/C (dose: 12.0 mg/kg/injection, schedule: Q01DX009 (ip), vehicle: saline): 189 % of control | T/C (dose: 24.0 mg/kg/injection, schedule: Q01DX009 (ip), vehicle: saline): 215 % of control

CC1([CH2][Hg][Cl])Cc2ccccc2O1 (stereo not drawn)
T/C (dose: 1.56 mg/kg/injection, schedule: Q04DX003 (ip), vehicle: saline with Tween-80): 92 % of control | T/C (dose: 3.13 mg/kg/injection, schedule: Q04DX003 (ip), vehicle: saline with Tween-80): 88 % of control

C/C=C1/C[C@@H](C)[C@@](C)(O)C(=O)OCC2=CCN3CC[C@@H](OC1=O)[C@@H]23
T/C (dose: 7.5 mg/kg/injection, schedule: Q01DX010 (ip), vehicle: steriod suspending solution): 109 % of control | T/C (dose: 15.0 mg/kg/injection, schedule: Q01DX010 (ip), vehicle: steriod suspending solution): 100 % of control | T/C (dose: 30.0 mg/kg/injection, schedule: Q01DX010 (ip), vehicle: steriod suspending solution): 100 % of control | T/C (dose: 60.0 mg/kg/injection, schedule: Q01DX010 (ip), vehicle: steriod suspending solution): 95 % of control and 109 % of control

O=C1CC(c2ccc(O)cc2)C2(O1)C(=O)OC(C(O)CO)C2O (stereo not drawn)
T/C (dose: 50.0 mg/kg/injection, schedule: Q01DX010 (ip), vehicle: saline): 100 % of control | T/C (dose: 100.0 mg/kg/injection, schedule: Q01DX010 (ip), vehicle: saline): 100 % of control | T/C (dose: 200.0 mg/kg/injection, schedule: Q01DX010 (ip), vehicle: saline): 105 % of control | T/C (dose: 400.0 mg/kg/injection, schedule: Q01DX010 (ip), vehicle: saline): 105 % of control

Br/C(=N\Nc1nn[nH]n1)c1ccccc1
T/C [3]: 87 % of control | T/C [9]: 91 % of control | T/C [10]: 91 % of control

CCN1C(=O)CN=C(c2ccccn2)c2cc(Cl)ccc21
T/C (dose: 100.0 mg/kg/injection, schedule: Q01DX001 (ip), vehicle: Klucel (hydroxypropylcellulose) (HPC)): 90 % of control | T/C (dose: 200.0 mg/kg/injection, schedule: Q01DX001 (ip), vehicle: Klucel (hydroxypropylcellulose) (HPC)): 104 % of control | T/C (dose: 400.0 mg/kg/injection, schedule: Q01DX001 (ip), vehicle: Klucel (hydroxypropylcellulose) (HPC)): 95 % of control

CCCN(CCC)CCCOC(=O)c1ccc(N)cc1
T/C (dose: 25.0 mg/kg/injection, schedule: Q01DX009 (ip), vehicle: saline): 100 % of control | T/C (dose: 50.0 mg/kg/injection, schedule: Q01DX009 (ip), vehicle: saline): 96 % of control | T/C (dose: 50.0 mg/kg/injection, schedule: Q04DX003 (ip), vehicle: saline): 100 % of control | T/C (dose: 100.0 mg/kg/injection, schedule: Q01DX009 (ip), vehicle: saline): 89 % of control | T/C (dose: 100.0 mg/kg/injection, schedule: Q04DX003 (ip), vehicle: saline): 95 % of control

C[C@@H](O)[C@@H](O)c1cnc2nc(N)[nH]c(=O)c2n1
T/C (dose: 50.0 mg/kg/injection, schedule: Q01DX005 (ip), vehicle: saline with Tween-80): 100 % of control | T/C (dose: 100.0 mg/kg/injection, schedule: Q01DX005 (ip), vehicle: saline with Tween-80): 91 % of control | T/C (dose: 200.0 mg/kg/injection, schedule: Q01DX005 (ip), vehicle: saline with Tween-80): 115 % of control
